Data: patent publication US20260217837A1, “FGFR3 BINDING MOLECULES AND METHODS OF USE THEREOF” (Regeneron Pharmaceuticals, Inc., priority 2023, published 2026)

Key:
[1] = tested on: locally advanced or metastatic bladder cancer; details: patients who receive cisplatin; Wong & Rosenberg, 2021; cited from earlier work
[2] = tested on: BaF3 cells expressing the double mutant FGFR3 S249C+V557L; assay: BaF3 cell viability, FGFR3 S249C+V557L; assay type: cell-based; details: 72 hours, FGF1/heparin
Excerpt: (§1) cDNA expressing FGFR3 mutants (S249C, S248C, Y375C, V555M, V555L, S249C+V555M, or S249C+V555L) were synthesized and cloned into pLVX Lenti-viral vector (Thermo Fisher). Viral particles were generated by lipofectamine transfection of LentiX 293T cells using Lenti-X packaging single shots following manufacturer's protocol (Clontech/Takara) and concentrated using Lenti-X concentrator and titer determined using Lenti-X p24 rapid titer kit (Clontech/Takara). BaF3 cells were transduced with virus at ~0.3 MOI.
(§2) For cell proliferation assays, engineered BaF3/hFGFR3 cells grown in complete medium were washed and plated in IL-3-free culture media±5 μg/ml heparin and 1 nM human FGF1. Cells were plated out at 1×10^5 cells/well into 96-well plates, followed by the addition of 1:3 serially diluted antibodies as indicated in figures. After addition of antibodies, cells were incubated at 37° C. for 72 h followed by the addition of CellTiter-Glo™ (Promega) reagent. The luminescent signal was detected by Envision plate reader (PerkinElmer). Data was analyzed using Prism software (GraphPad). […]

[3] = tested on: BaF3 cells expressing FGFR3 V557M; assay: BaF3 cell viability, FGFR3 V557M; assay type: cell-based; details: 72 hours, FGF1/heparin
Excerpt: as §1, §2

[4] = tested on: BaF3 cells expressing the double mutant FGFR3 S249C+V557M; assay: BaF3 cell viability, FGFR3 S249C+V557M; assay type: cell-based; details: 72 hours, FGF1/heparin
Excerpt: as §1, §2

[5] = tested on: BaF3 cells expressing FGFR3 V557L; assay: BaF3 cell viability, FGFR3 V557L; assay type: cell-based; details: 72 hours, FGF1/heparin
Excerpt: as §1, §2

Compound	median overall survival [1]	growth of BaF3 cells expressing FGFR3 S249C+V557L [2]	growth of BaF3 cells expressing FGFR3 V557M [3]	growth of BaF3 cells expressing FGFR3 S249C+V557M [4]	growth of BaF3 cells expressing FGFR3 V557L [5]
N.N.[Cl][Pt][Cl] [cisplatin]	approximately 14 months				
AZD4547 [reference compound]		ineffective	ineffective	ineffective	ineffective
